Source: PMC8301260 (Medicinal chemistry research : an international journal for …, 2016)
Entries after “also recorded” stand apart in the source; their conditions may differ.

What was measured:
human PBM cells = conditions: read-out: Cytotoxicity IC50 PBM; uninfected PHA-stimulated human PBM cells
HIV-1/LAI = type: cell-based; conditions: for EC50: read-out: Anti-HIV-1 activity in human PBM cells EC50, HIV-1/LAI, median effect method; for activity against HIV-1 (in words): human PBM cells
in vitro [1] = conditions: human, uninfected PHA-stimulated human PBM cells
in vitro [2] = conditions: human
in vitro [3] = conditions: African green monkey, Vero (African green monkey kidney) cells
[4] = test system: CEM (T-lymphoblastoid cell line)
[5] = test system: Vero (African green monkey kidney) cells; conditions: read-out: Cytotoxicity IC50 Vero
HIV-1 = conditions: ref De Corte 2005; Pauwels et al. 1993; cited from earlier work

With Cc1cn([C@H]2C[C@H](N=[N+]=[N-])[C@@H](CO)O2)c(=O)[nH]c1=O [AZT, 3′-Azido-2′,3′-dideoxythymidine, reference compound] as the compound, how does the IC50 (human PBM cells) read?
Its IC50 is over 100 µM.

With Cc1ccc(NC(C#N)c2ccc(OCc3ccc(Cl)cc3Cl)cc2)cc1 (stereo not shown) [Compound 2h, 2-[4-(2,4-Dichlorobenzyloxy)phenyl]-2-(4-toluidino)acetonitrile] as the compound, how does the EC50 (HIV-1/LAI) read?
The EC50 was 3.1 µM.

And the IC50 (in vitro [1])?
The IC50 was 15 µM.

And the IC50 (in vitro [2])?
Its IC50 is 11.7 µM.

And the IC50 (in vitro [3])?
Its IC50 is 39.7 µM.

With Cc1ccc(N2C(=O)CCC2(C#N)c2ccc(OC(C)C)cc2)cc1 (stereo not shown) [Compound 3e, 2-(4-Isopropoxyphenyl)-1-(4-methylphenyl)-5-oxo-2-pyrrolidinecarbonitrile] as the compound, how does the IC50 (in vitro [1]) read?
Its IC50 is over 100 µM.

What about the IC50 (in vitro [2]) of the same compound?
Its IC50 is 17 µM.

What about the IC50 (in vitro [3]) of the same compound?
Its IC50 is 46.5 µM.

For Cc1ccc(N2C(=O)CCC2(C#N)c2ccc(OCc3ccccc3)cc2)cc1 (stereo not shown) [Compound 3g, 2-(4-Benzyloxyphenyl)-1-(4-methylphenyl)-5-oxo-2-pyrrolidinecarbonitrile], which IC50 (in vitro [1]) is on record?
The IC50 was over 100 µM.

What about the IC50 (in vitro [2]) of the same compound?
Its IC50 is 30.3 µM.

What about the IC50 (in vitro [3]) of the same compound?
The IC50 was 53.9 µM.

With Cc1ccc(N2C(=O)CCC2(C#N)c2ccc(OCc3ccc(Cl)cc3Cl)cc2)cc1 (stereo not shown) [Compound 3h, 2-[4-(2,4-Dichlorobenzyloxy)phenyl]-1-(4-methylphenyl)-5-oxo-2-pyrrolidinecarbonitrile] as the compound, how does the IC50 (in vitro [1]) read?
Its IC50 is 9.7 µM.

And the IC50 (in vitro [2])?
The IC50 was 6.6 µM.

What about the IC50 (in vitro [3]) of the same compound?
Its IC50 is 21.8 µM.

Which “activity against HIV-1 (in words)” value (HIV-1/LAI) does the source give for Cc1cc(C)cc(NC(C(N)=O)c2c(Cl)cccc2Cl)c1 (stereo not shown) [Compound 4, 2-(2,6-Dichlorophenyl)-2-(3,5-dimethylanilino)acetamide] here?
The value was “very potent; also recorded: very active”.

What about the IC50 (in vitro [1]) of the same compound?
Its IC50 is 6.1 µM.

And the IC50 (in vitro [2])?
Its IC50 is 5.8 µM.

What about the IC50 (in vitro [3]) of the same compound?
Its IC50 is 68.7 µM.

With Cc1ccc(N2C(=O)CCC2(CN)c2ccccc2)cc1 (stereo not shown) [Compound 5a, 5-Aminomethyl-1-(4-methylphenyl)-5-phenyl-2-pyrrolidinone] as the compound, how does the IC50 (in vitro [1]) read?
Its IC50 is 54.1 µM.

What about the IC50 (in vitro [2]) of the same compound?
The IC50 was 53.6 µM.

And the IC50 (in vitro [3])?
Its IC50 is over 100 µM.

Which IC50 (in vitro [1]) does the source give for Cc1ccc(N2C(=O)CCC2(CN)c2ccc(OCc3ccccc3)cc2)cc1 (stereo not shown) [Compound 5f, 5-Aminomethyl-5-(4-benzyloxyphenyl)-1-(4-methylphenyl)-2-pyrrolidinone] here?
Its IC50 is 15.9 µM.

What about the IC50 (in vitro [2]) of the same compound?
Its IC50 is 33.7 µM.

And the IC50 (in vitro [3])?
Its IC50 is 12.3 µM.

What does the source list for NCC1(c2ccccc2)CCCN1C(=O)c1ccc(Br)cc1 (stereo not shown) [Compound 10]?
activity against HIV-1 (in words) (HIV-1/LAI): no inhibition; EC50 (HIV-1/LAI): > 100 µM; EC90 (HIV-1/LAI; read-out: Anti-HIV-1 activity in human PBM cells EC90, HIV-1/LAI, median effect method): > 100 µM; IC50 (human PBM cells): > 100 µM; IC50 [4]: 96.1 µM; IC50 [5]: > 100 µM

With CC(=O)c1ccc(C)cc1NC(C(N)=O)c1c(Cl)cccc1Cl (stereo not shown) [loviride] as the compound, how does the “inhibitory concentration relative to the cytotoxic concentration (fold less)” value (HIV-1) read?
Its value is 10,000 fold.
